Assay results as given in PubChem BioAssay AID1963985 (Molecular Pharmacology Branch, DTP, NCI, 2024).

Test system: 252836-082-R-J2-PDC tumor spheroids, viability
Experiment: Anticancer human tumor 252836-082-R-J2-PDC patient-derived head and neck squamous cell carcinoma cell line growth inhibition [PI3K]
Details: spheroids with HUVEC and MSC; for viability, T/C: stronger effect = lower value
In short: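 Complex 3D spheroids (cancer cells + endothelial HUVEC + mesenchymal stem cells); drug pairs of targeted agent x inavolisib/alpelisib/duvelisib/copanlisib; half-log series from ~Cmax, max 10 microM if Cmax unknown; endpoint viability.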

[1] = curve of first compound, second compound 0.0316 µM
[2] = curve of first compound, second compound 0.1 µM
[3] = curve of first compound, second compound 0.316 µM
[4] = curve of first compound, second compound 1 µM
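Further: spheroids exposed to agents for seven days before readout.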
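Wherever viability, T/C is given: percent of vehicle DMSO control viability so 100% = untreated growth.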

Cn1cnc2c(F)c(Nc3ccc(Br)cc3Cl)c(C(=O)NOCCO)cc21 + Cc1nc(NC(=O)N2CCCC2C(N)=O)sc1-c1ccnc(C(C)(C)C(F)(F)F)c1
IC50 [1]: > 3000 nM | IC50 [2]: 2410 nM | IC50 [3]: 1460 nM | IC50 [4]: 554 nM | IC50 (curve of first compound, second compound 3.16 µM): < 9.49 nM | IC50 (curve of first compound, second compound 10 µM): < 9.49 nM | viability, T/C (second compound 0.0316 µM, first compound 0.00949 µM): 93% | viability, T/C (second compound 0.0316 µM, first compound 0.03 µM): 67.1% | viability, T/C (second compound 0.0316 µM, first compound 0.0949 µM): 83% | viability, T/C (second compound 0.0316 µM, first compound 0.3 µM): 82.7% | viability, T/C (second compound 0.0316 µM, first compound 0.949 µM): 61.2% | viability, T/C (second compound 0.0316 µM, first compound 3 µM): 58.4% | viability, T/C (second compound 0.1 µM, first compound 0.00949 µM): 79.9% | viability, T/C (second compound 0.1 µM, first compound 0.03 µM): 74.5% | viability, T/C (second compound 0.1 µM, first compound 0.0949 µM): 73.3% | viability, T/C (second compound 0.1 µM, first compound 0.3 µM): 85.1% | viability, T/C (second compound 0.1 µM, first compound 0.949 µM): 67.9% | viability, T/C (second compound 0.1 µM, first compound 3 µM): 45.4% | viability, T/C (second compound 0.316 µM, first compound 0.00949 µM): 66.9% | viability, T/C (second compound 0.316 µM, first compound 0.03 µM): 68.1% | viability, T/C (second compound 0.316 µM, first compound 0.0949 µM): 65.2% | viability, T/C (second compound 0.316 µM, first compound 0.3 µM): 68.3% | viability, T/C (second compound 0.316 µM, first compound 0.949 µM): 55.7% | viability, T/C (second compound 0.316 µM, first compound 3 µM): 37.5% | viability, T/C (second compound 1 µM, first compound 0.00949 µM): 61.7% | viability, T/C (second compound 1 µM, first compound 0.03 µM): 50.1% | viability, T/C (second compound 1 µM, first compound 0.0949 µM): 51% | viability, T/C (second compound 1 µM, first compound 0.3 µM): 47.6% | viability, T/C (second compound 1 µM, first compound 0.949 µM): 50.1% | viability, T/C (second compound 1 µM, first compound 3 µM): 28.9% | viability, T/C (second compound 3.16 µM, first compound 0.00949 µM): 45.8% | viability, T/C (second compound 3.16 µM, first compound 0.03 µM): 45.6% | viability, T/C (second compound 3.16 µM, first compound 0.0949 µM): 32.2% | viability, T/C (second compound 3.16 µM, first compound 0.3 µM): 35.8% | viability, T/C (second compound 3.16 µM, first compound 0.949 µM): 25.8% | viability, T/C (second compound 3.16 µM, first compound 3 µM): 13.8% | viability, T/C (second compound 10 µM, first compound 0.00949 µM): 26.7% | viability, T/C (second compound 10 µM, first compound 0.03 µM): 29.4% | viability, T/C (second compound 10 µM, first compound 0.0949 µM): 25.8% | viability, T/C (second compound 10 µM, first compound 0.3 µM): 19.4% | viability, T/C (second compound 10 µM, first compound 0.949 µM): 14.2% | viability, T/C (second compound 10 µM, first compound 3 µM): 5.98%

COc1c(OCCCN2CCOCC2)ccc2c3n(c(=NC(=O)c4cnc(N)nc4)nc12)CCN3
viability, T/C (compound 0.00316 µM): 96.6% [middle of 8 runs] | viability, T/C (compound 0.01 µM): 80.7% [middle of 8 runs] | viability, T/C (compound 0.0316 µM): 59.6% [middle of 8 runs] | viability, T/C (compound 0.1 µM): 36.6% [middle of 8 runs] | viability, T/C (compound 0.316 µM): 15.3% [middle of 7 runs] | viability, T/C (compound 1 µM): 4.26% [middle of 8 runs] | IC50 (compound alone, run of 06/13/2023): 47.6 nM [middle of 8 runs]

CC1(C)CCC(CN2CCN(c3ccc(C(=O)NS(=O)(=O)c4ccc(NCC5CCOCC5)c([N+](=O)[O-])c4)c(Oc4cnc5[nH]ccc5c4)c3)CC2)=C(c2ccc(Cl)cc2)C1
viability, T/C (compound 0.0316 µM): 97.7% [middle of 4 runs] | viability, T/C (compound 0.1 µM): 99.2% [middle of 4 runs] | viability, T/C (compound 0.316 µM): 100% [middle of 4 runs] | viability, T/C (compound 1 µM): 96% [middle of 4 runs]

CC1(C)CCC(CN2CCN(c3ccc(C(=O)NS(=O)(=O)c4ccc(NCC5CCOCC5)c([N+](=O)[O-])c4)c(Oc4cnc5[nH]ccc5c4)c3)CC2)=C(c2ccc(Cl)cc2)C1 + COc1c(OCCCN2CCOCC2)ccc2c3n(c(=NC(=O)c4cnc(N)nc4)nc12)CCN3
IC50 (curve of first compound, second compound 0.00316 µM): 5820 nM | IC50 (curve of first compound, second compound 0.01 µM): 5250 nM | IC50 [1]: 3230 nM | IC50 [2]: < 31.6 nM | IC50 [3]: < 31.6 nM | IC50 [4]: < 31.6 nM | viability, T/C (second compound 0.00316 µM, first compound 0.0316 µM): 89.7% | viability, T/C (second compound 0.00316 µM, first compound 0.1 µM): 89.2% | viability, T/C (second compound 0.00316 µM, first compound 0.316 µM): 89.3% | viability, T/C (second compound 0.00316 µM, first compound 1 µM): 83.9% | viability, T/C (second compound 0.00316 µM, first compound 3.16 µM): 80.7% | viability, T/C (second compound 0.00316 µM, first compound 10 µM): 23% | viability, T/C (second compound 0.01 µM, first compound 0.0316 µM): 75.8% | viability, T/C (second compound 0.01 µM, first compound 0.1 µM): 67.3% | viability, T/C (second compound 0.01 µM, first compound 0.316 µM): 76.2% | viability, T/C (second compound 0.01 µM, first compound 1 µM): 84.8% | viability, T/C (second compound 0.01 µM, first compound 3.16 µM): 80.4% | viability, T/C (second compound 0.01 µM, first compound 10 µM): 15.9% | viability, T/C (second compound 0.0316 µM, first compound 0.0316 µM): 59.2% | viability, T/C (second compound 0.0316 µM, first compound 0.1 µM): 56% | viability, T/C (second compound 0.0316 µM, first compound 0.316 µM): 53.3% | viability, T/C (second compound 0.0316 µM, first compound 1 µM): 58.9% | viability, T/C (second compound 0.0316 µM, first compound 3.16 µM): 50.2% | viability, T/C (second compound 0.0316 µM, first compound 10 µM): 13.9% | viability, T/C (second compound 0.1 µM, first compound 0.0316 µM): 35.9% | viability, T/C (second compound 0.1 µM, first compound 0.1 µM): 35.8% | viability, T/C (second compound 0.1 µM, first compound 0.316 µM): 37% | viability, T/C (second compound 0.1 µM, first compound 1 µM): 35.3% | viability, T/C (second compound 0.1 µM, first compound 3.16 µM): 45.2% | viability, T/C (second compound 0.1 µM, first compound 10 µM): 14.2% | viability, T/C (second compound 0.316 µM, first compound 0.0316 µM): 17.2% | viability, T/C (second compound 0.316 µM, first compound 0.1 µM): 16.5% | viability, T/C (second compound 0.316 µM, first compound 0.316 µM): 15.8% | viability, T/C (second compound 0.316 µM, first compound 1 µM): 16.9% | viability, T/C (second compound 0.316 µM, first compound 3.16 µM): 17.1% | viability, T/C (second compound 0.316 µM, first compound 10 µM): 5.65% | viability, T/C (second compound 1 µM, first compound 0.0316 µM): 5.01% | viability, T/C (second compound 1 µM, first compound 0.1 µM): 3.96% | viability, T/C (second compound 1 µM, first compound 0.316 µM): 4.59% | viability, T/C (second compound 1 µM, first compound 1 µM): 3.64% | viability, T/C (second compound 1 µM, first compound 3.16 µM): 4.04% | viability, T/C (second compound 1 µM, first compound 10 µM): 1.11%
